Experimental data: PubChem BioAssay AID977630 (Broad Institute, 2014)
Results filed as inconclusive are left out. Active and inactive are the calls of the source.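 Rule for the calls: active = Normal-ribosome green reporter loss at least double humanized-ribosome red reporter loss, with overall culture growth inhibition under a set limit; inconclusive = no clear call, values can overlap the other calls; inactive = the rest.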

Tested on: E. coli wild-type GFP growth, mixed culture, 24 h
Assay: growth inhibition of wild-type GFP E. coli, H38-humanized RFP comparator, dose response, H38 mutant RFP vs wild-type GFP, cherry-pick (AID 977630);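 note: wild-type GFP strain mixed equally with humanized-ribosome H38 mutant expressing RFP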
[1] = E. coli mixed culture total OD600 growth, 24 h

Structure (SMILES) | AC50 | AC50 [1] [µM]
CC1CCCN(c2ccc(C(=O)NCCc3ccccc3)cn2)C1 (stereo unspecified) | > 100 µM (inactive) | > 100
CCN(CC)S(=O)(=O)c1cccc(NC(=O)CNc2cccc(S(=O)(=O)N3CCCC3)c2)c1 | > 100 µM (inactive) | –
Brc1ccc(Nc2ncnc3[nH]ncc23)cc1 | > 100 µM (inactive) | –
CC(C)(CC(=O)O)CC(=O)NCc1c(Cl)cccc1Sc1ccc(Cl)cc1 | > 100 µM (inactive) | –
COC(=O)CC#C[C@H](C)[C@@H](NS(=O)(=O)c1ccc([N+](=O)[O-])cc1)C(C)(C)C | > 100 µM (inactive) | –
O=C(CCNc1cccc(Cl)c1)c1cccs1 | > 100 µM (inactive) | –
O=S(=O)(c1ccccc1)N1CCN=C1SCc1cccc(Cl)c1 | > 100 µM (inactive) | > 100
Cc1nc(SCC(=O)Nc2ccc3c(c2)OCCO3)nc(C)c1C | > 100 µM (inactive) | > 100
C[C@@H]1CCCCO[C@H](CN(C)C(=O)CCCN(C)C)[C@H](C)CN([C@@H](C)CO)C(=O)c2cc(NC(=O)Nc3cccc4ccccc34)ccc2O1 | – | > 100
COc1cccc(NC(=O)CSc2nc3c(sc4ccccc43)c(=O)n2CCN(C)C)c1 | > 100 µM (inactive) | –
Cc1ccsc1C(=O)OCC(=O)N1CCc2ccccc2C1 | > 100 µM (inactive) | –
Cc1ccsc1C(=O)C1CCCN(Cc2cc(F)ccc2-n2cccn2)C1 (stereo unspecified) | > 100 µM (inactive) | > 100
Cc1cccc(NC(=O)CN(C)S(=O)(=O)c2cccs2)c1 | > 100 µM (inactive) | –
COc1ccc(OC)c(NC(=O)CN(C)CC(=O)Nc2ccccc2Br)c1 | > 100 µM (inactive) | –
CC(=O)Nc1ccc(CNc2nc(NCCN(C)C)nc3cc(-c4ccccc4)sc23)cc1 | > 100 µM (inactive) | –
Cc1nn2c(NCc3ccccn3)cc(C(C)C)nc2c1-c1ccccc1 | > 100 µM (inactive) | –
CC(C)(C)N(Cc1ccccc1)C(=O)COC(=O)Cn1cnc2ccccc2c1=O | > 100 µM (inactive) | –
O=C(NCc1ccco1)c1ccc(COc2cccc3ccccc23)cc1 | > 100 µM (inactive) | –
Cc1nn(C(C)(C)C)c(OC(=O)CC(C)C)c1S(=O)(=O)c1ccccc1 | > 100 µM (inactive) | –
COc1ccc(NC(=O)CN(c2ccccc2OC)S(=O)(=O)c2cccs2)cc1Cl | > 100 µM (inactive) | –
Nc1ccccc1Nc1ccc([N+](=O)[O-])cc1[N+](=O)[O-] | > 100 µM (inactive) | –
CCS(=O)(=O)N1CCN(c2ccnc3cc(Cl)ccc23)CC1 | > 100 µM (inactive) | > 100
CC(=O)c1c(C)nn(CC(O)COc2ccc3c(c2)CCC3)c1C (stereo unspecified) | > 100 µM (inactive) | > 100

Structure (SMILES) | AC50 | AC50 [1] [µM]
O=C(c1ccc(-n2cccn2)cc1)N1CCc2ccccc2C1 | > 100 µM (inactive) | –
Cc1[nH]nc2c1C(c1ccc(F)cc1)N(Cc1ccccc1)C2=O (stereo unspecified) | > 100 µM (inactive) | > 100
CCCc1c(C(=O)Nc2ccc(OC)cc2)cnn1-c1ccccc1 | > 100 µM (inactive) | > 100
COc1cc(NC(=O)COC(=O)CC(C)(C)C)c(C)cc1[N+](=O)[O-] | > 100 µM (inactive) | > 100
O=C1c2ccccc2CSc2c(O)cccc21 | > 100 µM (inactive) | 50.8
C=CCNC(=O)c1ccccc1CCc1ccccc1 | > 100 µM (inactive) | –
Cc1noc(C)c1COc1cccc(C(=O)N2CCc3ccccc32)c1 | > 100 µM (inactive) | –
COC(=O)c1cc2c(c3c4cc(F)ccc4n(S(=O)(=O)c4ccccc4)c13)C(=O)N(Cc1ccco1)C2 | > 100 µM (inactive) | –
CCOc1ccc2nc(SCC(=O)Nc3nonc3C)[nH]c2c1 | > 100 µM (inactive) | > 100
COc1ccc(NC(=O)c2cccs2)cc1C(=O)N1CCN(c2ccccc2)CC1 | > 100 µM (inactive) | –
O=C(COc1cc(F)ccc1[N+](=O)[O-])NCCCc1ccccc1 | > 100 µM (inactive) | –
Cc1ccc(S(=O)(=O)N2CCOCC2)cc1NC(=O)COc1ccc(-c2nnco2)cc1 | > 100 µM (inactive) | –
CC1CCN(C(=O)COC(=O)c2ccccc2NC(=O)c2ccco2)CC1 | > 100 µM (inactive) | –
O=S1(=O)N[C@H](Cc2ccccc2)COc2cccc(N3CCC[C@H]3CO)c21 | > 100 µM (inactive) | –
O=C(Nc1ccc(C(=O)Nc2ccccc2Cl)cc1)c1cccnc1 | > 100 µM (inactive) | –
CN(C)S(=O)(=O)c1ccc(Cl)c(C(=O)OCC(=O)NC(=O)c2cccn2C)c1 | > 100 µM (inactive) | –
Cc1cc(C(=O)OCC(=O)Nc2cccc(S(N)(=O)=O)c2)c2ccccc2n1 | > 100 µM (inactive) | > 100
Cc1noc(NS(=O)(=O)c2ccc(NC(=O)c3cc(-c4ccccc4Cl)nc4ccccc34)cc2)c1C | > 100 µM (inactive) | > 100
CC(C)(C)CC(=O)NCCc1csc(-c2ccccc2)n1 | > 100 µM (inactive) | –
COCC#Cc1ccc2c(c1)O[C@@H](CN(C)S(=O)(=O)c1cccc(F)c1)[C@@H](C)CN([C@H](C)CO)S2(=O)=O | – | > 100
CN1OC[C@@H]2CN(C(=O)c3ccco3)[C@H](c3ccc(-c4ccc(C#N)cc4)cc3)C[C@@H]21 | – | > 100
Cc1ccc(Cl)cc1N1CCN(C(=O)c2ccc3nc[nH]c3c2)CC1 | > 100 µM (inactive) | –
Cc1cc(C)n2nc(C(=O)Nc3cccc(S(=O)(=O)N(C)c4ccccc4)c3)nc2n1 | > 100 µM (inactive) | –

Structure (SMILES) | AC50 | AC50 [1] [µM]
Cc1ccc2c(N)c(C(=O)c3ccccc3)sc2n1 | – | > 100
O=C(Nc1cccc(Oc2ccc3c(c2)C(=O)NC3=O)c1)c1cccs1 | > 100 µM (inactive) | –
S=c1nc(-c2cc(Cl)cc(Cl)c2)[nH][nH]1 | > 100 µM (inactive) | –
Cc1ccc(S(=O)(=O)Nc2ccccc2CNc2cccc(C)n2)cc1 | > 100 µM (inactive) | –
O=C(Nc1ccccc1N1CCN(C(=O)c2ccccc2)CC1)c1ccc([N+](=O)[O-])o1 | > 100 µM (inactive) | –
CNC(=O)c1ccsc1NC(=O)c1ccc(S(=O)(=O)N2CCc3ccccc32)cc1 | – | > 100
O=c1c2cc(Br)ccc2[nH]c(=S)n1Cc1ccccc1 | > 100 µM (inactive) | –
COc1cccc(C(=O)Nc2nnc(S(=O)(=O)N(C)Cc3ccccc3)s2)c1 | > 100 µM (inactive) | 50.9
Nc1nc(Nc2ccccc2F)nc(N2CCOCC2)c1[N+](=O)[O-] | > 100 µM (inactive) | –
CCc1cccc(NC(=O)c2ccc3c(=O)n4c(nc3c2)CCCCC4)c1 | > 100 µM (inactive) | –
Cc1cccc(Oc2ccc(NC(=O)c3ccccc3C(=O)O)cc2)c1 | > 100 µM (inactive) | –
COc1cccc(CNC(=O)CCSCc2ccccc2F)c1 | > 100 µM (inactive) | > 100
COc1cc2cc(C(=O)Nc3ccc4c(c3)OCCO4)[nH]c2cc1OC | > 100 µM (inactive) | > 100
CC(C)(C)C1CCC(C(=O)OCC(=O)N2CCN(C(=O)c3ccco3)CC2)CC1 (stereo unspecified) | > 100 µM (inactive) | –
O=C(CCC1CCCN(C(=O)c2ccsc2)C1)N1CCN(c2ccccn2)CC1 (stereo unspecified) | > 100 µM (inactive) | –
Cc1ccc(S(=O)(=O)NCc2c(-c3ccccc3)noc2C)cc1 | > 100 µM (inactive) | –
CC1CCCN(C(=O)C(C)Nc2cc(Cl)ccc2N2CCOCC2)C1 (stereo unspecified) | > 100 µM (inactive) | –
O=C(Nc1ccc(Br)cc1)c1cccnc1N1CCCCC1 | – | > 100
Cc1cc(C)n(CC(O)COc2ccc3ccccc3c2)n1 (stereo unspecified) | > 100 µM (inactive) | > 100
COC(=O)c1ccc(OS(=O)(=O)c2ccc(NC(C)=O)cc2)cc1 | > 100 µM (inactive) | > 100
COc1ccc(C(NC(=O)C2CCN(CCOc3ccc(Cl)cc3Cl)CC2)c2ccccc2C)cn1 (stereo unspecified) | – | > 100
Cc1cccc(C(=O)NCC(=O)NCCSc2ccc(Br)cc2)c1 | > 100 µM (inactive) | –
C[C@]12CCC(=O)C[C@H]1CC[C@@H]1[C@@H]2CC[C@]2(C)C(=O)CC[C@@H]12 | > 100 µM (inactive) | –

Structure (SMILES) | AC50 | AC50 [1] [µM]
Cc1ccc(NC(=O)c2ccc([N+](=O)[O-])s2)cc1S(=O)(=O)N1CCOCC1 | > 100 µM (inactive) | > 100
O=C(CCCOc1ccc(Cl)cc1Cl)Nc1ccccc1C(=O)O | > 100 µM (inactive) | > 100
CN(CCOc1ccccc1)S(=O)(=O)c1ccccc1C#N | > 100 µM (inactive) | –
CCOC(=O)c1ccc(NC(=O)c2ccc(OC(C)C)c(OC)c2)cc1 | – | > 100
CS(=O)(=O)c1ccc(Cl)c(NC(=O)CSc2nncn2-c2ccccc2)c1 | > 100 µM (inactive) | –
CCOCCCNC(=O)C(NC(=O)c1ccccc1O)c1ccc(C)cc1 (stereo unspecified) | > 100 µM (inactive) | > 100
COc1ccccc1CN1Cc2ccccc2Oc2ccccc2S1(=O)=O | > 100 µM (inactive) | > 100
CC(=O)Nc1nc(C)c(-c2csc(Nc3ccccn3)n2)s1 | > 100 µM (inactive) | –
CCN(c1ccccc1)S(=O)(=O)c1ccc(OC)c(NC(=O)C2CC(=O)N(Cc3ccccc3)C2)c1 (stereo unspecified) | > 100 µM (inactive) | –
CCOc1ccc2nc(NC(=O)CSc3nc(SC)ns3)sc2c1 | > 100 µM (inactive) | > 100
O=S(=O)(NCc1ccc2c(c1)OCO2)c1ccc2c(c1)oc1ccccc12 | > 100 µM (inactive) | 27.2
CN(C)CCCN(C(=O)COc1ccc(Cl)cc1)c1nc2ccc(F)cc2s1 | > 100 µM (inactive) | –
COC(=O)c1ccsc1NC(=O)c1cccc(OC)c1 | – | > 100
Oc1c(Br)cc(Br)cc1Br | > 100 µM (inactive) | –
Cc1onc(-c2ccccc2Cl)c1C(=O)Nc1ccc(Cl)cn1 | > 100 µM (inactive) | –
Cc1cc(C(=O)NCCC2=CCCCC2)ccc1[N+](=O)[O-] | > 100 µM (inactive) | –
Cc1ccc(SCC(=O)Nc2ccc(S(=O)(=O)Nc3nccs3)cc2)cc1 | > 100 µM (inactive) | –
Cc1ccc(NC(=O)COC(=O)CCNS(=O)(=O)c2c(Cl)cccc2Cl)cc1 | – | > 100
O=C(Nc1ccn(Cc2ccc(Cl)cc2)n1)c1ccccc1 | – | > 100
CCCc1nc2oc3c(NCCCN(C)C)ncnc3c2c2c1CCCC2 | > 100 µM (inactive) | > 100
Cc1cccc(CN2C(=O)c3ccccc3Sc3ccc(C(=O)NCCN4CCOCC4)cc32)c1 | – | > 100
COc1ccc(N(C)S(=O)(=O)c2cccc(C(=O)NC3CCCCC3C)c2)cc1 (stereo unspecified) | > 100 µM (inactive) | –
